Source: PubChem BioAssay (NCI)
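The compound was tested at five concentrations on cells cultured in 96-well plates, with a 48-hour exposure period. The concentration for 50% growth inhibition is given as GI50. TGI: concentration producing complete growth inhibition.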

Experiments:
Experiment in all cases: growth of human tumour cells (NCI), 48 h
U251 CNS = tested on: U251 CNS
SN12C renal = tested on: SN12C renal
OVCAR-8 ovarian = tested on: OVCAR-8 ovarian
ACHN renal = tested on: ACHN renal
UACC-257 melanoma = tested on: UACC-257 melanoma
LOX IMVI melanoma = tested on: LOX IMVI melanoma
HCT-116 colon = tested on: HCT-116 colon
HT29 colon = tested on: HT29 colon
MDA-MB-231 breast = tested on: MDA-MB-231 breast
T-47D breast = tested on: T-47D breast

| Structure (SMILES) | TGI (U251 CNS) [µM] | TGI (SN12C renal) [µM] | TGI (OVCAR-8 ovarian) [µM] | TGI (ACHN renal) [µM] | TGI (UACC-257 melanoma) [µM] | TGI (LOX IMVI melanoma) [µM] | TGI (HCT-116 colon) [µM] | TGI (HT29 colon) [µM] | GI50 (HT29 colon) [µM] | GI50 (U251 CNS) [µM] | GI50 (SN12C renal) [µM] | GI50 (OVCAR-8 ovarian) [µM] | GI50 (ACHN renal) [µM] | GI50 (UACC-257 melanoma) [µM] | GI50 (HCT-116 colon) [µM] | GI50 (MDA-MB-231 breast) [nM] | TGI (MDA-MB-231 breast) [nM] | GI50 (LOX IMVI melanoma) [nM] | GI50 (T-47D breast) [nM] | TGI (T-47D breast) [µM] |
| --- | --- | --- | --- | --- | --- | --- | --- | --- | --- | --- | --- | --- | --- | --- | --- | --- | --- | --- | --- | --- |
| CCOC(=O)CC[C@H](NC(=O)c1nc[nH]c1[N+](=O)[O-])C(=O)OCC | > 100 | > 100 | > 100 | > 100 | > 100 | > 100 | > 100 |  |  |  |  |  |  |  |  |  |  |  |  |  |
| C[C@H](OCc1ccccc1)C(=O)N1CCS(=O)(=O)N2CCC[C@@H]2C1=O | > 100 | > 100 | > 100 | > 100 | > 100 | > 100 | > 100 | > 100 |  |  |  |  |  |  |  |  |  |  |  |  |
| C=Cc1cncc(C#N)c1CCc1c(C#N)cncc1C=C | > 100 | > 100 | > 100 | > 100 | > 100 | > 100 | > 100 | > 100 | > 100 | > 100 | > 100 | > 100 | > 100 | > 100 | > 100 |  |  |  |  |  |
| COc1ccc(/C=C/c2cc(OC)c(OC)c(OC)c2)cc1 | 11.7 | > 100 | > 100 | > 100 | > 100 | > 100 | > 77.2 | > 38 |  |  |  |  |  |  |  |  |  |  |  |  |
| O=C1c2cc3c(cc2[C@@H]2[C@H]1c1ccc([N+](=O)[O-])cc1C(=O)N2CCCBr)OCO3 |  | < 0.01 | 0.271 | < 0.01 | > 100 | < 0.0117 |  | > 100 | < 0.01 | < 0.01 | < 0.01 | < 0.01 | < 0.01 | < 0.01 |  | 187 | 699 | < 10 | < 10 | > 100 |
| Cc1nc(Nc2ccccc2)sc1C(=O)CC(=O)C(=O)Nc1c(C(C)C)cccc1C(C)C | > 100 | > 100 | > 100 | > 100 | > 100 | > 100 | > 100 | > 100 |  |  |  |  |  |  |  |  |  |  |  |  |
| C/C(=N/NC(=S)N1CCCCC1)c1ccccc1O | > 31.6 | > 31.6 | > 31.6 | > 31.6 | > 31.6 | > 31.6 |  | > 31.6 |  |  |  |  |  |  |  |  | > 100000 |  |  | > 31.6 |
| CCCCCCCCCCCCCCCC(=O)OCC1OC(n2cc(F)c(=O)[nH]c2=O)C(N)C(O)C1O (centres undefined) | 32.4 | 32.4 | 37.1 | 33.9 | 40.7 | 33.1 | 34.4 | 42.1 |  |  |  |  |  |  |  |  |  |  |  |  |
| O=C1C(c2ccccc2)=C(O)c2cccc3cccc1c23 | > 100 | > 100 | > 100 | > 100 | > 100 | > 100 | > 100 | > 100 |  |  |  |  |  |  |  |  |  |  |  |  |
| CCOC(=O)/C(C1=NCCN1)=C(\O)c1ccccc1 | > 100 | > 100 | > 100 | > 100 | > 100 | > 100 | > 100 | > 100 |  |  |  |  |  |  |  |  |  |  |  |  |
| COc1cc2c[n+](C)c3c4cc(OC)c(OC(C)C)cc4ccc3c2cc1OC | > 100 | > 100 | > 100 | > 100 | > 100 | > 100 | > 100 | > 100 |  |  |  |  |  |  |  |  |  |  |  |  |
